Measured values: ChEMBL document CHEMBL4665857, “Optimization of linear and cyclic peptide inhibitors of KEAP1-NRF2 protein-protein interaction” (Bioorg Med Chem, 2020)
Non-standard residues stand in square brackets, D forms with d. Residues, ends and D or L forms follow the SMILES beside them. Phe(4-CONH2) = NC(=O)c1ccc(C[C@H](N)C(=O)O)cc1; Pro(cis-4-F) = O=C(O)[C@@H]1C[C@H](F)CN1; hPhe = N[C@@H](CCc1ccccc1)C(=O)O; hSer = N[C@@H](CCO)C(=O)O

The molecules below were run against Kelch-like ECH-associated protein 1 (Homo sapiens, UniProt Q14145) (assay: Binding affinity to human KEAP1 Kelch domain (322 to 609 residues) incubated for 60 mins by TR-FRET assay).
Chain of Kelch-like ECH-associated protein 1 (Q14145 whole entry, the tested form may be a part): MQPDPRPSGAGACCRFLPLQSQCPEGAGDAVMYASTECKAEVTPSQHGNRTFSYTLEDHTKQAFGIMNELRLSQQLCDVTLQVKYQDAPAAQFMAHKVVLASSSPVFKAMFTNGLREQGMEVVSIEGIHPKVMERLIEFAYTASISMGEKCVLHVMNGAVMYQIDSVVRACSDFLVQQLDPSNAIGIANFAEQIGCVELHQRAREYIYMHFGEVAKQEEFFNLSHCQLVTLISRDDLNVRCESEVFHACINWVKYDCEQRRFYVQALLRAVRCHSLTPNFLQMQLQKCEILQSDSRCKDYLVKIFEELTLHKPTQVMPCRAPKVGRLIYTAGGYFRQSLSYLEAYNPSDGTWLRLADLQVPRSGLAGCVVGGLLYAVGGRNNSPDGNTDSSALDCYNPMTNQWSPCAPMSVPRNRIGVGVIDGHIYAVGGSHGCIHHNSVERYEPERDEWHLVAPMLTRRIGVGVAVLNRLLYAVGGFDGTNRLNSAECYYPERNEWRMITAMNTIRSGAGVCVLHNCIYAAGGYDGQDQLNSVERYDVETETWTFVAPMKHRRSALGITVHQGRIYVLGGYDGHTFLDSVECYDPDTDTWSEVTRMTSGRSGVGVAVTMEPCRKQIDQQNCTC

Molecule	IC50 [µM]
CC(=O)N[C@@H](CC(C)C)C(=O)N[C@@H](CC(=O)O)C(=O)N[C@@H](CCC(=O)O)C(=O)N[C@@H](CCC(=O)O)C(=O)N[C@H](C(=O)NCC(=O)N[C@@H](Cc1ccc(C(N)=O)cc1)C(=O)N[C@@H](Cc1ccccc1)C(=O)N[C@@H](CC(C)C)C(N)=O)[C@@H](C)O (Ac-LDEETG[Phe(4-CONH2)]FL-NH2)	> 64
CC(=O)N[C@@H](CC(C)C)C(=O)N[C@@H](CC(=O)O)C(=O)N[C@@H](CCC(=O)O)C(=O)N[C@@H](CCC(=O)O)C(=O)N[C@H](C(=O)NCC(=O)N[C@@H](CCO)C(=O)N[C@@H](Cc1ccccc1)C(=O)N[C@@H](CC(C)C)C(N)=O)[C@@H](C)O (Ac-LDEETG[hSer]FL-NH2)	> 50
Ac-LDEQTGEFL-NH2	> 64
CC(=O)N[C@@H](CC(C)C)C(=O)N[C@@H](CC(=O)O)C(=O)N[C@@H](CCC(=O)O)C(=O)N[C@@H](CCc1ccccc1)C(=O)N[C@H](C(=O)NCC(=O)N[C@@H](CCC(=O)O)C(=O)N[C@@H](Cc1ccccc1)C(=O)N[C@@H](CC(C)C)C(N)=O)[C@@H](C)O (Ac-LDE[hPhe]TGEFL-NH2)	> 64
CC(=O)N[C@@H](CC(C)C)C(=O)N[C@@H](CC(=O)O)C(=O)N1C[C@@H](F)C[C@H]1C(=O)N[C@@H](CCC(=O)O)C(=O)N[C@@H](Cc1ccccc1)C(=O)NCC(=O)N[C@@H](CCC(=O)O)C(=O)N[C@@H](Cc1ccccc1)C(=O)N[C@@H](CC(C)C)C(N)=O (Ac-LD[Pro(cis-4-F)]EFGEFL-NH2)	> 64
